Test results as given in a melting point compilation (Tetko et al.).

melting point | SMILES
76 to 78 °C | O=C(O)Cc1ccccc1OC(F)F
199 to 201 °C | O=C(O)c1sccc1-c1ccc(F)cc1
219 to 221 °C | Cc1ccccc1-c1nnc(N)[nH]1
155 to 158 °C | CS(=O)(=O)Nc1ccc(C(=O)CCl)cc1
148 to 150 °C | COc1cccc(CC(NC(C)=O)C(=O)O)c1 (stereo not given)
132 to 134 °C | Nc1cc(-c2cc(Cl)cc(Cl)c2)no1
232 to 234 °C | NS(=O)(=O)c1c[nH]cn1
44 to 46 °C | COC(=O)c1ccc(CBr)cc1OC
296 to 298 °C | Cc1[nH]c(=O)c(C(=O)O)cc1-c1ccc(O)cc1
56 to 58 °C | COc1ccc(C=O)cc1Cl
83 to 85 °C | COCCNS(=O)(=O)c1ccc(N)cc1
104 to 106 °C | CC(C)(C)OC(=O)Nc1csc(Br)n1
79 to 81 °C | O=[N+]([O-])c1ccccc1Nc1ccc(F)cc1F
107 to 109 °C | COc1ccccc1-c1ccc(C(C)=O)cc1
200 to 202 °C | Cc1cc2ncc3c(n2n1)C(=O)OCC3
122 to 124 °C | O=C(O)CNC(=O)CC(F)(F)F
131 to 133 °C | NNS(=O)(=O)Cc1ccccc1
214 to 216 °C | Sc1ccc(Cl)cn1
119 to 121 °C | Nc1cc(C(F)(F)F)ccc1-n1cncn1
49 to 51 °C | COc1ccccc1CC(C)CC(=O)O (stereo not given)
116 to 118 °C | CC(C)(CO)C(CN)c1ccccc1 (stereo not given)
233 to 235 °C | O=C(O)c1ccc(I)c(F)c1
157 to 159 °C | Cc1sc2nc(-c3ccccc3)nc(Cl)c2c1C
138 to 140 °C | CC(C)(C)CNc1ccc(C(N)=O)c(Cl)c1

melting point | SMILES
239 to 241 °C | O=C(O)c1ccc(=O)n(-c2ccc(F)cc2)n1
121 to 123 °C | O=C(O)C1CCCn2c1n[nH]c2=O (stereo not given)
177 to 179 °C | NS(=O)(=O)c1ccc(OCC(=O)O)c(F)c1
250 to 252 °C | O=C(O)c1cccc(S(=O)(=O)Nc2ccc(Cl)cc2)c1
169 to 171 °C | O=C1CCCc2c(Br)cccc2N1
164 to 166 °C | NS(=O)(=O)c1ccc2c(c1)NCCC2
140 to 142 °C | NNC(=S)NCc1ccc(F)cc1
274 to 276 °C | CN1CC(=O)Nc2cnccc21
193 to 195 °C | O=C1CCC(c2ccc(F)cc2)=NN1
190 to 192 °C | Cn1nnnc1SCC(=O)Nc1ccc(C(=O)O)cc1
85 to 87 °C | O=C(O)c1ccccc1OCc1ccc(Cl)cc1
108 to 110 °C | CC(=NO)c1ccc(S(=O)(=O)N(C)C)cc1
278 to 280 °C | Oc1ccc(-n2cnc3ccccc32)cc1
247 to 249 °C | O=S(=O)(c1cccc(-c2nnc(S)n2-c2ccc(OC(F)(F)F)cc2)c1)N1CCOCC1
161 to 163 °C | Nc1c(F)ccc(Cl)c1C(=O)O
106 to 108 °C | CN(CC(=O)O)c1ccc(C(F)(F)F)cc1C=O
165 to 167 °C | O=C(O)CCn1cnc2sccc2c1=O
108 to 110 °C | CCc1nnc2cc(Cl)ncn12
143 to 145 °C | O=C(c1ccc[nH]1)N1CCCNCC1
89 to 91 °C | O=C(COc1ccc2c(c1)CCC2)c1ccc(Cl)c(Cl)c1
251 to 253 °C | O=C(O)c1ccc(Oc2ccc(Br)cc2)c(F)c1
185 to 187 °C | NC(=O)c1sc2nc(C3CC3)cc(-c3ccccc3)c2c1N
51 to 53 °C | CCOC(=O)C(=O)CC(=O)c1ccc2ccccc2c1
176 to 178 °C | O=C(O)C1(c2ccc(Br)cc2)CCCC1

melting point | SMILES
82 to 84 °C | CC(=O)c1nnn(-c2cccc(Cl)c2)c1C
151 to 153 °C | COc1ccc(O)c(C(N)=O)c1
221 to 223 °C | Cc1c(Br)ccc(C(=O)O)c1N
198 to 200 °C | NC(=O)NC(CC(=O)O)c1ccc(Cl)cc1 (stereo not given)
186 to 188 °C | Cc1n[nH]c2ncc(N)cc12
162 to 164 °C | O=C1CCN(c2ccc([N+](=O)[O-])cc2)CC1
165 to 167 °C | O=C(O)CCc1cncc(F)c1
79 to 81 °C | CN1C(=O)CCc2cc(Br)ccc21
120 to 123 °C | Cc1c(NC(=O)CSc2ccccc2C(=O)O)c(=O)n(-c2ccccc2)n1C
115 to 124 °C | Nc1ccccc1C(=O)NCc1ccc2c(c1)OCO2
118 to 120 °C | COCCc1nnc(S)n1N
193 to 195 °C | O=C(O)c1cccc(N2CC=CC2)c1
65 to 67 °C | CC(=O)c1nc2ccccc2n1C(F)F
173 to 175 °C | Sc1nnc(-c2ccco2)o1
38 to 40 °C | CCCCOc1ccc(C=O)cc1OCC
199 to 200 °C | O=C(O)C(=Cc1ccc(Br)cc1)c1cccs1
131 to 133 °C | Sc1nnc(C2CC2)o1
46 to 48 °C | C#CCOc1ccc(NC)cc1
190 to 192 °C | CNc1nc2ccccc2[nH]1
84 to 86 °C | Cc1nccn1-c1ccc(N)cc1F
184 to 186 °C | O=C1CNC2(CCCCC2)C(=O)N1
44 to 46 °C | c1ccc(CN2CCNc3ccccc32)cc1
68 to 70 °C | C=CC(=O)Nc1ccccc1OC
120 to 122 °C | COc1ccc(NS(=O)(=O)c2cccs2)cc1

melting point | SMILES
67 to 69 °C | O=C(O)C1(c2ccc(F)cc2)CCC1
79 to 81 °C | Nc1ccc(Oc2ccc(CO)cc2)cc1
147 to 149 °C | O=C(O)C1(c2cccc(C(F)(F)F)c2)CCOCC1
139 to 141 °C | Cc1ccccc1-c1cc(N)n(Cc2ccccc2)n1
214 to 216 °C | O=C(O)c1csc(-c2cccc([N+](=O)[O-])c2)n1
209 to 211 °C | O=C1NC(=O)C2(CCCN(Cc3ccccc3)C2)N1 (stereo not given)
206 to 208 °C | ON=Cc1nc2cc(Cl)ccc2o1
99 to 101 °C | NC(=O)C1CNc2ccccc2N1 (stereo not given)
211 to 213 °C | CC(C)(C)C(=O)Nc1cccc(C(=O)O)c1
69 to 71 °C | NC1CCN(c2ccc(Cl)c(F)c2)C1=O (stereo not given)
125 to 127 °C | CC(=O)NCc1ccc(C(=O)CCl)o1
61 to 63 °C | N#Cc1cccc(-n2cccn2)c1
192 to 194 °C | Nc1nonc1C(=O)N1CCCC1
236 to 238 °C | CCN(CC)C1=NC(=O)C(CC(=O)Nc2cccc(C(=O)O)c2)S1 (stereo not given)
78 to 80 °C | COc1ccccc1C(N)c1nccn1C (stereo not given)
125 to 127 °C | Nc1cc(S(=O)(=O)NC2CC2)ccc1Cl
31 to 33 °C | Cn1cc(C=O)cn1
131 to 133 °C | CSCCC(NC(=O)c1ccc2ccccc2n1)C(=O)O (stereo not given)
158 to 160 °C | O=C(O)c1nccn2c(Br)cnc12
179 to 181 °C | O=C(O)c1ccc(CSc2ccccc2)cc1
129 to 131 °C | O=C(O)C=Cc1cccc(CO)c1
141 to 143 °C | O=C(O)c1cnn2c1NCCC2
109 to 111 °C | O=C1CCOc2ccccc2N1
125 to 127 °C | Nc1cccc2c1CC(O)C2 (stereo not given)

melting point | SMILES
126 to 128 °C | Cc1ccc(OCCCC(=O)Nc2ccc(C#N)cc2)cc1
119 to 121 °C | CCS(=O)(=O)c1ccccc1N1CCC(N)CC1
99 to 101 °C | CC(C)(C)NS(=O)(=O)c1ccc(F)c(N)c1
132 to 134 °C | CCOC(=O)NC1CCC(O)CC1 (stereo not given)
168 to 170 °C | O=C(O)c1c(Cl)ccc(S(=O)(=O)Cl)c1Cl
153 to 155 °C | O=C1NCC(=O)N2CCCCC12 (stereo not given)
216 to 218 °C | Cc1cccc(CNc2ccc3[nH]c(=O)[nH]c3c2)c1
102 to 104 °C | COC(=O)c1cccc(OCc2ncon2)c1
34 to 36 °C | OCCCOc1ccc(Br)cc1
155 to 157 °C | Cc1cc(OC(F)F)c(C(=O)O)s1
90 to 92 °C | CCOC(=O)c1sc(N)c(C(=O)OC(C)(C)C)c1C
179 to 181 °C | CC(C)S(=O)(=O)Nc1ccc(C(=O)O)cc1
102 to 104 °C | c1ccc2c(c1)CC(n1cccn1)CN2 (stereo not given)
113 to 115 °C | NC(=O)CSc1ccccc1N
123 to 125 °C | CC(C)(C)OC(=O)NC1CCCCCC1C(=O)O (stereo not given)
69 to 71 °C | Cc1ccc(S(=O)(=O)Cl)cc1Br
210 to 212 °C | O=C(O)C(NC1CC1)c1ccc(O)cc1 (stereo not given)
116 to 118 °C | CC(C)n1cnnc1S
202 to 206 °C | Fc1ccc(-c2cc3ncnc(Cl)c3s2)cc1
109 to 111 °C | CC(=O)N(C)CCC(N)=S
191 to 193 °C | CC(=O)c1cccc(S(=O)(=O)NC(CC(N)=O)C(=O)O)c1 (stereo not given)
172 to 174 °C | Cn1cnn(CC(=O)O)c1=O
146 to 148 °C | O=C(O)CN1CCCC1CO (stereo not given)
52 to 54 °C | COc1cc(CN)ccc1OC(C)(C)C

melting point | SMILES
58 to 60 °C | COCCOc1c(Cl)cc(N)cc1Cl
178 to 180 °C | Cc1cc(C(=O)NC2CCCCC2)ccc1N
61 to 63 °C | O=C1C=CC(=O)N1CCc1ccc([N+](=O)[O-])cc1
119 to 121 °C | Sc1nc2c(s1)CCCC2
186 to 188 °C | CC1CCCCN1C(=O)c1ccc(N)cc1Cl (stereo not given)
177 to 179 °C | CCc1nn(C)c(CC)c1S(N)(=O)=O
251 to 253 °C | Nc1cc(-c2ccc(Br)cc2)ncn1
66 to 68 °C | CSc1ccnc(C#N)c1
94 to 96 °C | Nc1cc([N+](=O)[O-])ccc1Sc1cccs1
95 to 97 °C | CN1C(=O)CCC(CO)C1c1ccc(C(F)(F)F)cc1 (stereo not given)
100 to 102 °C | NNC(=S)NC1CC1
344 to 346 °C | NC(=O)c1cc(C(=O)O)c[nH]1
210 to 212 °C | Nc1nnc(C2COc3ccccc3O2)o1 (stereo not given)
134 to 136 °C | CC(=O)Nc1cc(N)ccc1F
214 to 216 °C | COc1ccc(-c2nnc(N)[nH]2)c(OC)c1
116 to 119 °C | COc1ccc2ccc(O)cc2c1
82 to 84 °C | COc1ccccc1NC(=O)CCCCC(=O)O
54 to 56 °C | CC1CCCCN1Cc1ccc(N)cc1 (stereo not given)
218 to 220 °C | Cc1cc(C(=O)O)ccc1I
132 to 134 °C | Cc1nnc(S)n1C1CC1

SMILES | melting point
N#CC(c1ccc(Br)cc1)N1CCNCC1 (stereo not given) | 83 to 85 °C
CC(N)C(O)c1c(F)cccc1F (stereo not given) | 119 to 121 °C
ClCc1noc(-c2ccoc2)n1 | 77 to 79 °C
CC(Br)c1ccc([N+](=O)[O-])cc1 (stereo not given) | 33 to 35 °C
CCN1CCN(Cc2ccc(N)cc2)CC1 | 72 to 74 °C
